The values that follow come from ChEMBL document CHEMBL3046648, “Herbicidally Active N-(1-Arylethenyl)-2-chloroacetamides Bearing an Alkyloxyalkyl Moiety” (1991).

Assay type in all cases: functional
The test system of assay [1] is Echinochloa oryzicola. Briefly: Herbicidal activity against Echinochloa oryzicola assessed as killing at 10 g/a at 25 degC measured after 3 weeks.
Assay [2] can be described thus: Herbicidal activity against annual broad-leaf weeds assessed as killing at 1 g/a at 25 degC measured after 3 weeks.
The subject of assay [3] is Schoenoplectiella juncoides. Briefly: Herbicidal activity against Schoenoplectiella juncoides assessed as killing at 1 g/a at 25 degC measured after 3 weeks.
The test system of assay [4] is Cyperus difformis. The assay can be described thus: Herbicidal activity against Cyperus difformis assessed as killing at 1 g/a at 25 degC measured after 3 weeks.
Assay [5] has as its system Pontederia vaginalis. The assay can be described thus: Herbicidal activity against Monochoria vaginalis assessed as killing at 1 g/a at 25 degC measured after 3 weeks.
The test system of assay [6] is Schoenoplectiella juncoides. Briefly: Herbicidal activity against Schoenoplectiella juncoides assessed as killing at 10 g/a at 25 degC measured after 3 weeks.
The nature of assay [7]: Herbicidal activity against annual broad-leaf weeds assessed as killing at 10 g/a at 25 degC measured after 3 weeks.
Assay [8] concerns Pontederia vaginalis. The assay can be described thus: Herbicidal activity against Monochoria vaginalis assessed as killing at 10 g/a at 25 degC measured after 3 weeks.
In assay [9] the test system is Echinochloa oryzicola. The assay can be described thus: Herbicidal activity against Echinochloa oryzicola assessed as killing at 1 g/a at 25 degC measured after 3 weeks.
For assay [10], the system named is Cyperus difformis. The assay can be described thus: Herbicidal activity against Cyperus difformis assessed as killing at 10 g/a at 25 degC measured after 3 weeks.

Structures are written as SMILES. Where “and” joins values, the source holds several entries; their conditions need not be identical. Equal entries are not always repeated.

As for `COCCN(C(=O)CCl)C(=C(C)C)c1ccc(OC)cc1`, the Activity with Echinochloa oryzicola [1] worked out at 100%; in [2], 0%; in assay [3], 80%; in the assay on Cyperus difformis [4] it was 100%; with Pontederia vaginalis [5], 80%; in assay [6], 100%. For the same molecule, the Activity in assay [7] was 100%; with Pontederia vaginalis [8], 100%; in the assay with Echinochloa oryzicola [9] it was 80%; in the assay on Cyperus difformis [10], 100%.
Consider `COCCN(C(=O)CCl)C(=C(C)C)c1ccc(Cl)cc1`, for which the Activity in the assay with Echinochloa oryzicola [1] was determined as 100%; in assay [2], 100%; in assay [3] it was 80%; with Cyperus difformis [4], 100%; with Pontederia vaginalis [5], 100%; in [6], 100%. For the same molecule, the Activity (in assay [7]; in the assay with Pontederia vaginalis [8]; with Echinochloa oryzicola [9]; in the assay on Cyperus difformis [10]) was 100% in each case.
Take `COCCN(C(=O)CCl)C(=C(C)C)c1ccc(C)cc1`: the Activity with Echinochloa oryzicola [1] turned out to be 100%; in assay [2], 80%; in assay [3], 80%; in the assay with Cyperus difformis [4], 100%; in the assay on Pontederia vaginalis [5] it was 60%; in assay [6] it was 100%. Moreover, the Activity in [7] is 100%; in the assay on Pontederia vaginalis [8] it was 100%; with Echinochloa oryzicola [9], 80%; in the assay with Cyperus difformis [10], 100%.
Take `CCC(CC)=C(c1ccccc1)N(CCOC)C(=O)CCl`: the Activity with Echinochloa oryzicola [1] came out at 100%; in assay [2], 0%; in assay [3], 0%; with Cyperus difformis [4], 40%; with Pontederia vaginalis [5], 0%; in [6] it was 100%. In addition, the Activity was 80% in assay [7], 100% in the assay with Pontederia vaginalis [8], 80% in the assay on Echinochloa oryzicola [9] and 100% in the assay on Cyperus difformis [10].
As for `CC=C(c1ccccc1)N(CCOC)C(=O)CCl`, the Activity in the assay on Echinochloa oryzicola [1] came out at 100%; in [2], 0%; in [3], 0%; in the assay with Cyperus difformis [4], 60%; in the assay with Pontederia vaginalis [5], 0%; in [6], 100%. Further, the Activity in [7] came out at 100%; in the assay with Pontederia vaginalis [8], 100%; with Echinochloa oryzicola [9], 40%; in the assay on Cyperus difformis [10], 100%.
For `COCCN(C(=O)CCl)C(=C(C)C)c1ccc(SC)cc1`, the Activity in the assay with Echinochloa oryzicola [1] is 100%; in assay [2] it was 100%; in assay [3] it was 0%; in the assay with Cyperus difformis [4], 60%; with Pontederia vaginalis [5] it was 0%; in assay [6], 100%. In addition, the Activity turned out to be 100% in assay [7], 100% in the assay with Pontederia vaginalis [8], 40% with Echinochloa oryzicola [9] and 100% in the assay with Cyperus difformis [10].
Consider `COCCN(C(=O)CCl)C(=C(C)C)c1ccc(C)cc1C`, for which the Activity with Echinochloa oryzicola [1] is 100%; in [2] it was 0%; in assay [3], 80%; with Cyperus difformis [4] it was 80%; in the assay with Pontederia vaginalis [5], 0%; in assay [6], 100%. In addition, the Activity in [7] was 80%; in the assay on Pontederia vaginalis [8] it was 100%; with Echinochloa oryzicola [9], 60%; with Cyperus difformis [10] it was 100%.
In the case of `COCCN(C(=O)CCl)C(=C(C)C)c1cccs1`, the Activity in the assay on Echinochloa oryzicola [1] amounted to 100%; in assay [2] it was 0%; in [3], 100%; in the assay on Cyperus difformis [4], 100%; in the assay on Pontederia vaginalis [5] it was 100%; in [6], 100%. For the same molecule, the Activity (in assay [7]; in the assay on Pontederia vaginalis [8]; with Echinochloa oryzicola [9]; in the assay with Cyperus difformis [10]) was 100% in each case.
Regarding `COCCN(C(=O)CCl)C(=C(C)C)c1cccc(Cl)c1`, the Activity in the assay with Echinochloa oryzicola [1] stood at 100%; in [2], 80%; in assay [3], 80%; with Cyperus difformis [4], 80%; with Pontederia vaginalis [5], 60%; in assay [6], 100%. The Activity in [7] worked out at 100%; in the assay on Pontederia vaginalis [8], 100%; in the assay with Echinochloa oryzicola [9], 80%; in the assay on Cyperus difformis [10], 100%.
As to `COCCCN(C(=O)CCl)C(=C(C)C)c1ccccc1`, the Activity with Echinochloa oryzicola [1] amounted to 100%; in assay [2] it was 0%; in assay [3], 40%; in the assay on Cyperus difformis [4], 60%; in the assay on Pontederia vaginalis [5], 100%; in assay [6] it was 100%. In addition, the Activity in [7] amounted to 100%; in the assay with Pontederia vaginalis [8], 100%; in the assay with Echinochloa oryzicola [9], 60%; with Cyperus difformis [10], 100%.
With `COCCN(C(=O)CCl)C(=C(C)C)c1ccc(C(C)(C)C)cc1`, the Activity with Echinochloa oryzicola [1] stood at 100%; in assay [2], 80%; in [3] it was 60%; with Cyperus difformis [4], 60%; in the assay with Pontederia vaginalis [5], 60%; in [6], 100%. In addition, the Activity was determined as 100% in assay [7], 100% with Pontederia vaginalis [8], 80% in the assay with Echinochloa oryzicola [9] and 100% with Cyperus difformis [10].
Take `C=CCOCCN(C(=O)CCl)C(=C(C)C)c1ccccc1`: the Activity (in the assay on Echinochloa oryzicola [1]; in [2]; in assay [3]; in the assay on Cyperus difformis [4]; in the assay with Pontederia vaginalis [5]; in assay [6]) was 100% in each case. Also, the Activity (in assay [7]; in the assay with Pontederia vaginalis [8]; in the assay on Echinochloa oryzicola [9]; in the assay with Cyperus difformis [10]) was 100% throughout.
For `COCCN(C(=O)CCl)C(=C(C)C)c1cc(C)ccc1C`, the Activity came out at 100% with Echinochloa oryzicola [1]; 20% in assay [2]; 80% in [3]; 80% in the assay on Cyperus difformis [4]; 40% in the assay on Pontederia vaginalis [5]; 100% in assay [6]. Besides, the Activity (in assay [7]; in the assay with Pontederia vaginalis [8]; in the assay on Echinochloa oryzicola [9]; in the assay with Cyperus difformis [10]) was 100% each time.
With `COCCN(C(=O)CCl)C(=C(C)C)c1ccc(Br)cc1`, the Activity in the assay with Echinochloa oryzicola [1] was 100%; in assay [2], 80%; in assay [3], 80%; with Cyperus difformis [4], 100%; in the assay with Pontederia vaginalis [5], 100%; in [6], 100%. Further, the Activity (in assay [7]; in the assay on Pontederia vaginalis [8]; with Echinochloa oryzicola [9]; in the assay with Cyperus difformis [10]) was 100% throughout.
With `C=CCOCC(C)N(C(=O)CCl)C(=C(C)C)c1ccccc1` (stereo not given), the Activity in the assay on Echinochloa oryzicola [1] was 100%; in assay [2] it was 100%; in [3] it was 60%; in the assay with Cyperus difformis [4], 60%; in the assay on Pontederia vaginalis [5], 40%; in [6] it was 100%. Moreover, the Activity came to 100% in assay [7], 100% in the assay with Pontederia vaginalis [8], 40% in the assay on Echinochloa oryzicola [9] and 100% with Cyperus difformis [10].
`COCCN(C(=O)CCl)C(=C(C)C)c1ccc(Oc2ccccc2)cc1`: the Activity was 100% with Echinochloa oryzicola [1]; 100% in [2]; 60% in assay [3]; 100% with Cyperus difformis [4]; 100% in the assay on Pontederia vaginalis [5]; 100% in [6]. The Activity (in assay [7]; in the assay with Pontederia vaginalis [8]; with Echinochloa oryzicola [9]; in the assay with Cyperus difformis [10]) was 100% each time.
Turning to `COC(CN(C(=O)CCl)C(=C(C)C)c1ccccc1)OC`, the Activity in the assay with Echinochloa oryzicola [1] was 100%; in [2] it was 80% and 100%; in assay [3], 0%; in the assay with Cyperus difformis [4], 100%; in the assay with Pontederia vaginalis [5] it was 0%; in assay [6] it was 100%. Besides, the Activity in assay [7] was 100%; with Pontederia vaginalis [8] it was 100%; in the assay with Echinochloa oryzicola [9], 40%; with Cyperus difformis [10], 100%.
For the molecule `CCC(C)=C(c1ccccc1)N(CCOC)C(=O)CCl`, the Activity in the assay on Echinochloa oryzicola [1] is 100%; in [2], 40%; in assay [3] it was 0%; with Cyperus difformis [4], 80%; in the assay on Pontederia vaginalis [5] it was 0%; in assay [6], 100%. In addition, the Activity is 100% in assay [7], 100% with Pontederia vaginalis [8], 80% with Echinochloa oryzicola [9] and 100% in the assay on Cyperus difformis [10].
In the case of `CCOCCCN(C(=O)CCl)C(=C(C)C)c1ccccc1`, the Activity in the assay with Echinochloa oryzicola [1] is 100%; in [2] it was 40%; in [3], 40%; in the assay with Cyperus difformis [4] it was 60%; in the assay on Pontederia vaginalis [5], 0%; in assay [6], 100%. Besides, the Activity in assay [7] came out at 100%; in the assay on Pontederia vaginalis [8], 100%; in the assay with Echinochloa oryzicola [9], 80%; with Cyperus difformis [10], 100%.
As for `COCCN(C(=O)CCl)C(=C(C)C)c1cccc(C)c1`, the Activity (in the assay with Echinochloa oryzicola [1]; in assay [2]; in [3]; with Cyperus difformis [4]; in the assay on Pontederia vaginalis [5]; in [6]) was 100% throughout. Moreover, the Activity (in assay [7]; in the assay with Pontederia vaginalis [8]; in the assay on Echinochloa oryzicola [9]; with Cyperus difformis [10]) was 100% throughout.
